Values of other authors in patent US20170326065A1, “METHODS AND COMPOSITION FOR TREATMENT OF CARDIOVASCULAR CONDITIONS” (Ezra Pharma LLC, priority 2016, published 2017).

T1/2 alpha phase of elimination (biphasic elimination, rapid alpha phase): 1 to 2 h | T1/2 beta phase of elimination (biphasic elimination, slow beta phase, in h): 7-8 | peak plasma concentration reduced to (by 12 hours, marketed immediate release formulation): approximately 65% | absolute bioavailability (oral administration, printed range (10-35%)): about 25% | half-life (valsartan): about 6 hours | Tmax (valsartan, oral): 2 to 4 h
Compound: CCCCC(=O)N(Cc1ccc(-c2ccccc2-c2nnn[nH]2)cc1)[C@H](C(=O)O)C(C)C [valsartan]
